Reference: ChEMBL document CHEMBL4152339, “Design and synthesis of novel 1H-tetrazol-5-amine based potent antimicrobial agents: DNA topoisomerase IV and gyrase affinity evaluation supported by molecular docking studies” (Eur J Med Chem, 2018)
pIC50: −log10 of the molar value. Converted amounts (≈) assume the structure as drawn.

How the values were obtained:
[1] = system: Staphylococcus epidermidis; assay: Antibacterial activity against Staphylococcus epidermidis ATCC 35984 after 18 hrs by CLSI […] method; assay type: functional; settings: ATCC 35984, 18 h
Escherichia coli [2] = assay: Antibacterial activity against Escherichia coli ML 5 after 18 hrs by CLSI disc diffusion method; assay type: functional; settings: ML 5, 18 h
Pseudomonas aeruginosa [3] = assay: Antibacterial activity against Pseudomonas aeruginosa 31m after 18 hrs by CLSI disc diffusion method; assay type: functional
Pseudomonas aeruginosa [4] = assay: Antibacterial activity against Pseudomonas aeruginosa ATCC 15442 after 18 hrs by CLSI disc diffusion method; assay type: functional; settings: ATCC 15442, 18 h
HaCaT = assay: Cytotoxicity activity against human HaCaT cells assessed as reduction in cell viability after 72 hrs by MTT assay; assay type: cell-based
[5] = Selectivity index, ratio of IC50 for human HaCaT cells to MIC for Escherichia coli ATCC 10538; assay type: toxicity; settings: read-out: Selectivity Index
Staphylococcus aureus [6] = assay: Antibacterial activity against Staphylococcus aureus 585 after 18 hrs by CLSI disc diffusion method; assay type: functional; settings: Staphylococcus aureus, 585, 18 h
Staphylococcus aureus [7] = assay: Antibacterial activity against Staphylococcus aureus 497 after 18 hrs by CLSI disc diffusion method; assay type: functional; settings: Staphylococcus aureus, 497, 18 h
Bacillus cereus = assay: Antibacterial activity against Bacillus cereus ATCC 11778 after 18 hrs by CLSI disc diffusion method; assay type: functional; settings: ATCC 11778, 18 h
[8] = Selectivity index, ratio of IC50 for human HaCaT cells to MIC for Bacillus subtilis ATCC 6633; assay type: toxicity; settings: read-out: Selectivity Index
Pseudomonas aeruginosa [9] = assay: Antibacterial activity against Pseudomonas aeruginosa 6m after 18 hrs by CLSI disc diffusion method; assay type: functional
Escherichia coli [10] = assay: Antibacterial activity against Escherichia coli ATCC 10538 after 18 hrs by CLSI disc diffusion method; assay type: functional; settings: ATCC 10538, 18 h
[11] = system: Staphylococcus epidermidis; assay: Antibacterial activity against Staphylococcus epidermidis 511 after 18 hrs by CLSI disc diffusion method; assay type: functional; settings: Staphylococcus epidermidis, 511, 18 h
Staphylococcus aureus [12] = assay: Antibacterial activity against Staphylococcus aureus 586 after 18 hrs by CLSI disc diffusion method; assay type: functional; settings: Staphylococcus aureus, 586, 18 h
[13] = system: Staphylococcus epidermidis; assay: Antibacterial activity against Staphylococcus epidermidis 431 after 18 hrs by CLSI disc diffusion method; assay type: functional; settings: Staphylococcus epidermidis, 431, 18 h
[14] = system: Staphylococcus epidermidis; assay: Antibacterial activity against Staphylococcus epidermidis 510 after 18 hrs by CLSI disc diffusion method; assay type: functional; settings: Staphylococcus epidermidis, 510, 18 h
[15] = system: Staphylococcus epidermidis; assay: Antibacterial activity against Staphylococcus epidermidis 471 after 18 hrs by CLSI disc diffusion method; assay type: functional; settings: Staphylococcus epidermidis, 471, 18 h
Micrococcus luteus [16] = assay: Antibacterial activity against Micrococcus luteus ATCC 10240 after 18 hrs by CLSI disc diffusion method; assay type: functional; settings: ATCC 10240, 18 h
Escherichia coli [17] = assay: Antibacterial activity against Escherichia coli ML 16 after 18 hrs by CLSI disc diffusion method; assay type: functional; settings: ML 16, 18 h
[18] = system: Staphylococcus epidermidis; assay: Antibacterial activity against Staphylococcus epidermidis 432 after 18 hrs by CLSI disc diffusion method; assay type: functional; settings: Staphylococcus epidermidis, 432, 18 h
Pseudomonas aeruginosa [19] = assay: Antibacterial activity against Pseudomonas aeruginosa 16m after 18 hrs by CLSI disc diffusion method; assay type: functional
Pseudomonas aeruginosa [20] = assay: Antibacterial activity against Pseudomonas aeruginosa 18m after 18 hrs by CLSI disc diffusion method; assay type: functional
Staphylococcus aureus [21] = assay: Antibacterial activity against Staphylococcus aureus 537 after 18 hrs by CLSI disc diffusion method; assay type: functional; settings: Staphylococcus aureus, 537, 18 h
Pseudomonas aeruginosa [22] = assay: Antibacterial activity against Pseudomonas aeruginosa 10m after 18 hrs by CLSI disc diffusion method; assay type: functional
[23] = system: Staphylococcus epidermidis; assay: Antibacterial activity against Staphylococcus epidermidis 469 after 18 hrs by CLSI disc diffusion method; assay type: functional; settings: Staphylococcus epidermidis, 469, 18 h
Micrococcus luteus [24] = assay: Antibacterial activity against Micrococcus luteus ATCC 9341 after 18 hrs by CLSI disc diffusion method; assay type: functional; settings: ATCC 9341, 18 h
[25] = Selectivity index, ratio of IC50 for human HaCaT cells to MIC for Staphylococcus aureus NCTC 4163; assay type: toxicity; settings: read-out: Selectivity Index
Escherichia coli [26] = assay: Antibacterial activity against Escherichia coli ML 9 after 18 hrs by CLSI disc diffusion method; assay type: functional; settings: ML 9, 18 h
[27] = system: Staphylococcus epidermidis; assay: Antibacterial activity against Staphylococcus epidermidis ATCC 12228 after 18 hrs by CLSI disc diffusion method; assay type: functional; settings: ATCC 12228, 18 h
Pseudomonas aeruginosa [28] = assay: Antibacterial activity against Pseudomonas aeruginosa 11m after 18 hrs by CLSI disc diffusion method; assay type: functional
Staphylococcus aureus [29] = assay: Antibacterial activity against Staphylococcus aureus 572 after 18 hrs by CLSI disc diffusion method; assay type: functional; settings: Staphylococcus aureus, 572, 18 h
Escherichia coli [30] = assay: Antibacterial activity against Escherichia coli ML 6 after 18 hrs by CLSI disc diffusion method; assay type: functional; settings: ML 6, 18 h
Escherichia coli [31] = assay: Antibacterial activity against Escherichia coli ML 15 after 18 hrs by CLSI disc diffusion method; assay type: functional; settings: ML 15, 18 h
[32] = system: Staphylococcus epidermidis; assay: Antibacterial activity against Staphylococcus epidermidis 433 after 18 hrs by CLSI disc diffusion method; assay type: functional; settings: Staphylococcus epidermidis, 433, 18 h
Escherichia coli [33] = assay: Antibacterial activity against Escherichia coli ML 12 after 18 hrs by CLSI disc diffusion method; assay type: functional; settings: ML 12, 18 h
[34] = Selectivity index, ratio of IC50 for human HaCaT cells to MIC for Micrococcus luteus ATCC 10240; assay type: toxicity; settings: read-out: Selectivity Index
[35] = Selectivity index, ratio of IC50 for human HaCaT cells to MIC for Enterococcus hirae ATCC 10541; assay type: toxicity; settings: read-out: Selectivity Index
Bacillus spizizenii = assay: Antibacterial activity against Bacillus subtilis ATCC 6633 after 18 hrs by CLSI disc diffusion method; assay type: functional; settings: ATCC 6633, 18 h
Staphylococcus aureus [36] = assay: Antibacterial activity against Staphylococcus aureus 496 after 18 hrs by CLSI disc diffusion method; assay type: functional; settings: Staphylococcus aureus, 496, 18 h
[37] = system: Bordetella bronchiseptica; assay: Antibacterial activity against Bordetella bronchiseptica ATCC 4617 after 18 hrs by CLSI disc diffusion method; assay type: functional; settings: ATCC 4617, 18 h
Enterococcus hirae = assay: Antibacterial activity against Enterococcus hirae ATCC 10541 after 18 hrs by CLSI disc diffusion method; assay type: functional; settings: ATCC 10541, 18 h
Staphylococcus aureus [38] = assay: Antibacterial activity against Staphylococcus aureus 495 after 18 hrs by CLSI disc diffusion method; assay type: functional; settings: Staphylococcus aureus, 495, 18 h
Escherichia coli [39] = assay: Antibacterial activity against Escherichia coli ML 17 after 18 hrs by CLSI disc diffusion method; assay type: functional; settings: ML 17, 18 h
[40] = Inhibition of Staphylococcus aureus DNA topoisomerase 4 using Kinetoplast DNA as substrate after 30 mins by ethidium bromide staining based agarose gel electrophoresis method
Pseudomonas aeruginosa [41] = assay: Antibacterial activity against Pseudomonas aeruginosa 7m after 18 hrs by CLSI disc diffusion method; assay type: functional
Staphylococcus aureus [42] = assay: Antibacterial activity against Staphylococcus aureus ATCC 25923 after 18 hrs by CLSI disc diffusion method; assay type: functional; settings: ATCC 25923, 18 h
Staphylococcus aureus [43] = assay: Antibacterial activity against Staphylococcus aureus ATCC 6538 after 18 hrs by CLSI disc diffusion method; assay type: functional; settings: ATCC 6538, 18 h
A549 = assay: Cytotoxicity activity against human A549 cells assessed as reduction in cell viability after 72 hrs by MTT assay; assay type: cell-based; settings: A549, 72 h
[44] = Selectivity index, ratio of IC50 for human HaCaT cells to MIC for Bordetella bronchiseptica ATCC 4617; assay type: toxicity; settings: read-out: Selectivity Index
[45] = Selectivity index, ratio of IC50 for human HaCaT cells to MIC for Proteus vulgaris NCTC 4635; assay type: toxicity; settings: read-out: Selectivity Index
Pseudomonas aeruginosa [46] = assay: Antibacterial activity against Pseudomonas aeruginosa ATCC 27853 after 18 hrs by CLSI disc diffusion method; assay type: functional; settings: ATCC 27853, 18 h
Pseudomonas aeruginosa [47] = assay: Antibacterial activity against Pseudomonas aeruginosa 12m after 18 hrs by CLSI disc diffusion method; assay type: functional
Staphylococcus aureus [48] = assay: Antibacterial activity against Staphylococcus aureus 498 after 18 hrs by CLSI disc diffusion method; assay type: functional; settings: Staphylococcus aureus, 498, 18 h
Proteus vulgaris = assay: Antibacterial activity against Proteus vulgaris NCTC 4635 after 18 hrs by CLSI disc diffusion method; assay type: functional; settings: NCTC 4635, 18 h
[49] = system: Staphylococcus epidermidis; assay: Antibacterial activity against Staphylococcus epidermidis 423 after 18 hrs by CLSI disc diffusion method; assay type: functional; settings: Staphylococcus epidermidis, 423, 18 h
Escherichia coli [50] = assay: Antibacterial activity against Escherichia coli ML 8 after 18 hrs by CLSI disc diffusion method; assay type: functional; settings: ML 8, 18 h
Enterococcus faecalis = assay: Antibacterial activity against Enterococcus faecalis ATCC 29212 after 18 hrs by CLSI disc diffusion method; assay type: functional; settings: ATCC 29212, 18 h
Staphylococcus aureus [51] = assay: Antibacterial activity against Staphylococcus aureus NCTC 4163 after 18 hrs by CLSI disc diffusion method; assay type: functional; settings: NCTC 4163, 18 h

## Cc1ccc(-n2nnnc2NCc2ccco2)cc1Cl
[1]
  MIC: 7 µM (≈ 2.03 µg/mL)
Escherichia coli [2]
  MIC: 14 µM (≈ 4.06 µg/mL)
Pseudomonas aeruginosa [3]
  MIC: 14 µM (≈ 4.06 µg/mL)
Pseudomonas aeruginosa [4]
  MIC: 111 µM (≈ 32.2 µg/mL)
HaCaT
  pIC50: 4.10
[5]
  selectivity ratio: 11.4
Staphylococcus aureus [6]
  MIC: 7 µM (≈ 2.03 µg/mL)
Staphylococcus aureus [7]
  MIC: 7 µM (≈ 2.03 µg/mL)
Bacillus cereus
  MIC: 7 µM (≈ 2.03 µg/mL)
[8]
  selectivity ratio: 11.4
Pseudomonas aeruginosa [9]
  MIC: 14 µM (≈ 4.06 µg/mL)
Escherichia coli [10]
  MIC: 14 µM (≈ 4.06 µg/mL)
[11]
  MIC: 14 µM (≈ 4.06 µg/mL)
Staphylococcus aureus [12]
  MIC: 14 µM (≈ 4.06 µg/mL)
[13]
  MIC: 7 µM (≈ 2.03 µg/mL)
[14]
  MIC: 14 µM (≈ 4.06 µg/mL)
[15]
  MIC: 14 µM (≈ 4.06 µg/mL)
Micrococcus luteus [16]
  MIC: 7 µM (≈ 2.03 µg/mL)
Escherichia coli [17]
  MIC: 14 µM (≈ 4.06 µg/mL)
[18]
  MIC: 14 µM (≈ 4.06 µg/mL)
Pseudomonas aeruginosa [19]
  MIC: 28 µM (≈ 8.11 µg/mL)
Pseudomonas aeruginosa [20]
  MIC: 28 µM (≈ 8.11 µg/mL)
Staphylococcus aureus [21]
  MIC: 14 µM (≈ 4.06 µg/mL)
Pseudomonas aeruginosa [22]
  MIC: 14 µM (≈ 4.06 µg/mL)
[23]
  MIC: 7 µM (≈ 2.03 µg/mL)
Micrococcus luteus [24]
  MIC: 14 µM (≈ 4.06 µg/mL)
[25]
  selectivity ratio: 5.71
Escherichia coli [26]
  MIC: 28 µM (≈ 8.11 µg/mL)
[27]
  MIC: 7 µM (≈ 2.03 µg/mL)
Pseudomonas aeruginosa [28]
  MIC: 28 µM (≈ 8.11 µg/mL)
Staphylococcus aureus [29]
  MIC: 14 µM (≈ 4.06 µg/mL)
Escherichia coli [30]
  MIC: 111 µM (≈ 32.2 µg/mL)
Escherichia coli [31]
  MIC: 111 µM (≈ 32.2 µg/mL)
[32]
  MIC: 14 µM (≈ 4.06 µg/mL)
Escherichia coli [33]
  MIC: 111 µM (≈ 32.2 µg/mL)
[34]
  selectivity ratio: 11.4
[35]
  selectivity ratio: 2.85
Bacillus spizizenii
  MIC: 7 µM (≈ 2.03 µg/mL)
Staphylococcus aureus [36]
  MIC: 14 µM (≈ 4.06 µg/mL)
[37]
  MIC: 14 µM (≈ 4.06 µg/mL)
Enterococcus hirae
  MIC: 28 µM (≈ 8.11 µg/mL)
Staphylococcus aureus [38]
  MIC: 7 µM (≈ 2.03 µg/mL)
Escherichia coli [39]
  MIC: 14 µM (≈ 4.06 µg/mL)
[40]
  IC50: 11.9 µg/mL (≈ 41.1 µM)
Pseudomonas aeruginosa [41]
  MIC: 14 µM (≈ 4.06 µg/mL)
Staphylococcus aureus [42]
  MIC: 14 µM (≈ 4.06 µg/mL)
Staphylococcus aureus [43]
  MIC: 7 µM (≈ 2.03 µg/mL)
A549
  pIC50: 4.11
[44]
  selectivity ratio: 11.4
[45]
  selectivity ratio: 11.4
Pseudomonas aeruginosa [46]
  MIC: 14 µM (≈ 4.06 µg/mL)
Pseudomonas aeruginosa [47]
  MIC: 14 µM (≈ 4.06 µg/mL)
Staphylococcus aureus [48]
  MIC: 7 µM (≈ 2.03 µg/mL)
Proteus vulgaris
  MIC: 14 µM (≈ 4.06 µg/mL)
[49]
  MIC: 7 µM (≈ 2.03 µg/mL)
Escherichia coli [50]
  MIC: 14 µM (≈ 4.06 µg/mL)
Enterococcus faecalis
  MIC: 56 µM (≈ 16.2 µg/mL)
Staphylococcus aureus [51]
  MIC: 14 µM (≈ 4.06 µg/mL)
